Ends that are not written are not given here.
How the values were obtained:
[1] = test system: survivin mRNA; assay: Real-time qPCR of survivin mRNA in C2C12 cells; format: cell-based, mouse; conditions: for survivin mRNA induction compared to solvent control / survivin mRNA induction, in words: C2C12 cells in low serum media, 20 μM peptide, 6 h
Description: Total RNA was extracted from cells using TRIzol (Invitrogen). Synthesis of cDNA was performed with 1 μg of total RNA at 50° C. for 50 min using oligo(dT) primers and reverse transcriptase (Superscript III; Invitrogen). Briefly, quantification of cDNA was performed in the LightCycler (Roche, Mannheim, Germany) using the DNA Master SYBR Green I kit (Roche) with the following cycling conditions: initial denaturation at 95° C. for 10 min, followed by 40 cycles at 95° C. for 10 s, 60° C. for 10 s, and 72° C. for 10 s and a 5-min terminal incubation at 72° C. The data were calculated with AACt. The expression was then normalized against the expression of glyceraldehyde-3-phosphate dehydrogenase (GAPDH). The PCR primers were mouse Survivin sense, 5′-[…]-3′ (SEQ ID NO: 27), anti-sense, 5′-[…]-3′ (SEQ ID NO: 28) (accession number: NM_001012273.1; PCR product: 136 bp); mouse GAPDH sense, 5′-[…]-3′ (SEQ ID NO: 29), anti-sense, 5′-[…]-3′ (SEQ ID NO: 30) (NM_001289726.1; 149 bp). For analysis rabbit inflammatory gene expression, The PCR primers were rabbit TNF-αsense, 5′-[…]-3′ (SEQ ID NO: 31), anti-sense, 5′-[…]-3′ (SEQ ID NO: 32) (accession number: NM 001082263.1); rabbit IL-1βsense, 5′-[…]-3′(SEQ ID NO: 33), anti-sense, 5′-[…]-3′ (SEQ ID NO: 34) (NM 001082201.1); rabbit GAPDH sense, 5′-[…]-3′ (SEQ ID NO: 35), anti-sense, 5′-[…]-3′ (SEQ ID NO: 36) (accession number:NM 001082253.1). The cycle threshold (Ct) values of the PCR product and a GAPDH (Glyceraldehyde 3-phosphate dehydrogenase) control mRNA were used to calculate relative quantities of mRNA.
Similar to the approach in Example 1.2.1, the expression level of survivin mRNA in C2C12 cells was used as an indicator for the function of the 6-mer variants in Tables 3 to 5. Briefly, C2C12 cells in low serum media were treated with 20 μM the 6-mer variants for 6 h. […] The results also confirmed that alanine substation at the glutamic acid (E) residues would severely impair the 6-mer activity.

[2] = test system: Sprague-Dawley rats, retinal ischemia/reperfusion (I/R) injury; assay: TUNEL staining of I/R-injured rat retina (20 h); format: in vivo; conditions: for Number of TUNEL-positive cells in retina: subconjunctival injection 1 mM 4 h before I/R, 20 hours after I/R injury, Vehicle + I/R 27.2 ± 2.7; for I/R-induced retinal cell apoptosis (TUNEL staining), in words: subconjunctival injection prior to I/R, 20 h reperfusion
Description: Experimental procedures were approved by the Mackay Memorial Hospital Review Board (Taiwan, R.O.C.). All surgeries were performed under aseptic conditions. Adult 10-week-old male Sprague-Dawley rats (initial body weight=312±11 g) were anesthetized by an intraperitoneal injection of xylazine (10 mg/kg). Peptide was dissolved in 0.85% normal saline to 1 mM and delivered by the subconjunctival injection of 100 μL peptide through a 31-Gneedle with a micro-syringe before the induction of I/R. Normal saline was as a vehicle control. Rat I/R was performed after peptide or vehicle injection for 4 h. Pupils were dilated with 0.5% tropicamide and 0.5% phenylephrine. Body temperature was maintained at 37° C. using a heating blanket After dilation of the pupil, the anterior chamber of the right eye was cannulated with a 27-gauge needle connected to a physiological saline reservoir. The intraocular pressure (IOP) was raised to 110 mmHg by keeping the reservoir at 150 cm above the eye, and retinal ischemia was confirmed by observing whitening of the iris and the loss of the red reflex of the retina. After 90 min of ischemia, the cannulating needle was withdrawn and the IOP was returned to normal pressure, resulting in recovery of the blood supply from the retinal artery and reperfusion injury induced. The reperfusion was evident by the return of the red reflex. Corneal analgesia was achieved using 1 or 2 drops of 0.4% oxybuprocaine hydrochloride, and Ofloxacin ophthalmic gel (0.3%) was applied topically to the eye before and after the procedure. Only the right eye was used in all experiments. A sham procedure was performed at left eye served as an intra-animal control.
After I/R for 20 h, rats (n=6 in each group) were euthanized by an overdose of pentobarbital. Enucleated eyeballs were fixed in 4% PFA for 24 h at 4° C. Fixed retinal tissues were embedded in paraffin. To identify apoptosis of retinal cells, 5 μm sections thick cut through the optic disc, de-paraffinized, rehydrated, incubatedwith 20 μg/mL proteinase K for 10 min, and immunofluorescence staining of apoptotic cells was performed using a terminal deoxynucleotidyl transferase(TdT)-mediated dUTP nick-end labeling (TUNEL)-based kit (Roche Molecular Biochemicals, Indianapolis, IN) according to the manufacturer's instructions. Nuclei were located by counterstaining with Hoechst 33258 for 7 min Sections were observed under an epifluorescence microscope (Zeiss Axioplan 2 imaging; Zeiss, Oberkochen, Germany) equipped with a charge-coupled device (CCD) camera (Zeiss AxioCam HRm, Zeiss) (×400, 6 fields/sample), and quantification was performed using Axiovert software (Zeiss AxioVision Release 4.8.2, Zeiss). Three sections per eye were averaged and the mean of six eyes was recorded as the representative value for each group.
In this example, the neuroprotective effect of the 6-mer variant peptides on neural retina cells and retinal capillary system was investigated using a rat model of I/R injury described in the “Material and Methods” section. Briefly, 6-mer variant peptide (1 mM, 120 μl) was injected into the subconjunctival space of Sprague-Dawley rats for 4 h before the induction of I/R. Then, I/R injury was induced in rat retinas by increasing the intraocular pressure (IOP) in the eye to 110 mmHg for 90 min, followed by 20 h of reperfusion. Subsequently, the level of retinal cell apoptosis was evaluated using TUNEL staining. In addition, the retinal morphology was analyzed with H&E staining 14 days after the I/R injury. Results are summarized in FIGS. 6 to 10, and Tables 6 to 9.

Row | Molecule | survivin mRNA induction compared to solvent control [1] | survivin mRNA induction, in words [1] | other results
1 | NH2-Ser-Leu-Asn-Ala-Glu-Gln-COOH (SLNAEQ; not fully specified (N-terminus, C-terminus); printed as NH2-Ser-Leu-Asn-Ala-Glu-Gln-COOH) [6-mer Gn] | 1.5 fold |  | 
2 | NH2-Ser-Leu-Gly-Ala-Glu-Ala-COOH (SLGAEA; not fully specified (N-terminus, C-terminus); printed as NH2-Ser-Leu-Gly-Ala-Glu-Ala-COOH) [6-mer Qa] | 1.6 fold |  | 
3 | NH2-Ser-Leu-Gly-Ala-Glu-Asn-COOH (SLGAEN; not fully specified (N-terminus, C-terminus); printed as NH2-Ser-Leu-Gly-Ala-Glu-Asn-COOH) [6-mer Qn] | 2.1 fold |  | Number of TUNEL-positive cells in retina [2]: 12.5 ± 0.89 /200 μm; I/R-induced retinal cell apoptosis (TUNEL staining), in words [2]: reduced the retinal cell apoptosis induced by I/R
4 | NH2-Ser-Leu-Gly-Ala-Glu-(D-Gln)-COOH (SLGAEQ; HELM PEPTIDE1{S.L.G.A.E.[dQ]}$$$$V2.0; SMILES CC(C)C[C@H](NC(=O)[C@@H](N)CO)C(=O)NCC(=O)N[C@@H](C)C(=O)N[C@@H](CCC(=O)O)C(=O)N[C@H](CCC(N)=O)C(=O)O) [6-mer dQ] |  | hamper the survivin gene induction activity significantly | 
5 | NH2-Ser-Leu-Gly-Glu-Glu-Gln-COOH (SLGEEQ; not fully specified (N-terminus, C-terminus); printed as NH2-Ser-Leu-Gly-Glu-Glu-Gln-COOH) [6-mer Ae] | 1.5 fold |  | 
6 | NH2-Ser-Leu-Gly-Ala-(D-Glu)-Gln-COOH (SLGAEQ; HELM PEPTIDE1{S.L.G.A.[dE].Q}$$$$V2.0; SMILES CC(C)C[C@H](NC(=O)[C@@H](N)CO)C(=O)NCC(=O)N[C@@H](C)C(=O)N[C@H](CCC(=O)O)C(=O)N[C@@H](CCC(N)=O)C(=O)O) [6-mer dE] |  | moderate induction on survivin mRNA level | 
7 | NH2-Ser-Leu-Gly-Gly-Glu-Gln-COOH (SLGGEQ; not fully specified (N-terminus, C-terminus); printed as NH2-Ser-Leu-Gly-Gly-Glu-Gln-COOH) [6-mer Ag] | 1.5 fold |  | 
8 | NH2-Ser-Leu-Gly-Ile-Glu-Gln-COOH (SLGIEQ; not fully specified (N-terminus, C-terminus); printed as NH2-Ser-Leu-Gly-Ile-Glu-Gln-COOH) [6-mer Ai] |  | severely impaired the survivin mRNA induction | 
9 | NH2-Ser-(D-Leu)-Gly-Ala-Glu-Gln-COOH (SLGAEQ; HELM PEPTIDE1{S.[dL].G.A.E.Q}$$$$V2.0; SMILES CC(C)C[C@@H](NC(=O)[C@@H](N)CO)C(=O)NCC(=O)N[C@@H](C)C(=O)N[C@@H](CCC(=O)O)C(=O)N[C@@H](CCC(N)=O)C(=O)O) [6-mer dL] |  | hamper the survivin gene induction activity significantly | 
10 | NH2-Ser-Leu-Gly-Ala-Asp-Gln-COOH (SLGADQ; not fully specified (N-terminus, C-terminus); printed as NH2-Ser-Leu-Gly-Ala-Asp-Gln-COOH) [6-mer Ed] |  | severely impaired the survivin mRNA induction | 
11 | NH2-Ser-Ile-Gly-Ala-Glu-Gln-COOH (SIGAEQ; not fully specified (N-terminus, C-terminus); printed as NH2-Ser-Ile-Gly-Ala-Glu-Gln-COOH) [6-mer Li] | 2.1 fold |  | Number of TUNEL-positive cells in retina [2]: 9.8 ± 1.4 /200 μm; I/R-induced retinal cell apoptosis (TUNEL staining), in words [2]: reduced the retinal cell apoptosis induced by I/R
12 | NH2-Ser-Leu-Ala-Ala-Glu-Gln-COOH (SLAAEQ; not fully specified (N-terminus, C-terminus); printed as NH2-Ser-Leu-Ala-Ala-Glu-Gln-COOH) [6-mer Ga] | 1.6 fold |  | 
13 | NH2-Ser-Leu-Gly-Ser-Glu-Gln-COOH (SLGSEQ; not fully specified (N-terminus, C-terminus); printed as NH2-Ser-Leu-Gly-Ser-Glu-Gln-COOH) [6-mer As] |  | severely impaired the survivin mRNA induction | 
14 | NH2-Ser-Ala-Gly-Ala-Glu-Gln-COOH (SAGAEQ; not fully specified (N-terminus, C-terminus); printed as NH2-Ser-Ala-Gly-Ala-Glu-Gln-COOH) [6-mer La] | 1.5 fold |  | 
15 | O=[N+]([O-])c1ccc2c(c1)S(=O)(=O)C=C2 [STAT3 inhibitor V, reference compound] |  |  | survivin mRNA expression induced by the 6-mer dS in cells pretreated with STAT3 inhibitor ([1]; C2C12 cells, 2.6-fold without inhibitor): 1.3 fold

Source: patent US12221494B2, “Short synthetic peptides and their uses for treating retinal degenerative diseases and/or tissue injuries” (MacKay Memorial Hospital, priority 2019, dated 2025)
